Measurements as given in US20060167229A1, “Biologically active peptide conjugates” (priority 2002, published 2006).
Marks after values point to notes of the source that are not given here. Ends that are not written are not given here.

Tests used:
Type in all cases: in vivo, BALB/c mice
NK cell = NK cell activity in mice with ascitic fluid type liver cancer H22; details: saline 24.0 ± 8.2
Method: Healthy BALB/c mice were randomised into peptide group, rmIFN-γ group, rhIL-2 group, and saline group, 15 mice per group, and prepared into H22 carrying mice model as described in section Method 3. After implantation of the cancer cells, the test substances were administered for 15 days, the mice were killed by cervical dislocation. The spleen was isolated aseptically and manually dispersed in cold D-Hank's solution using an injection needle. The dispersed cell suspension was further sieved through a 100-gauge 150 μm diameter stainless steel sieve. After centrifugation at 200 g for 10 minutes, the supernatant was discarded. The cell pellet was re-suspended in 10 volume of Tris-NH4Cl buffer and then kept standing still for 10 minutes at room temperature. The suspended cells were collected by centrifugation at 150 g for 10 minutes. The cells were washed 2-4 times with cold D-Hank's solution by re-suspending and collecting by centrifugation with condition as described above. The washed cells were then diluted to the desired cell densities by RPMI-1640 culture medium, containing 10% fetal bovine serum.
Mice spleen cells were prepared to 4×10^6/ml as described in section 4.1 above. Target cells YAC-1 were brought to log phase and adjusted to 1×10^5/ml. Using a 96 wells cell culture plate, 100 μl mouse spleen cells and 100 μl culture medium were added to the control well containing only the spleen cells; 100 μl target cells and 100 μl culture medium were added to the control well containing only target cells; 100 μl mouse spleen cells and 100 μl target cells were added to the NK activity assay well. Three parallel sets of the above were prepared per mouse. After that, the 96 wells cell culture plates were incubated for 4 hrs at 37° C., 5% CO2.
Samples were centrifuged at 150 g for 10 minutes to collect the cells. The supernatant was discarded and 50 μl/well MTT of 1 mg/ml was added. The reaction-mixture was then shaken for 2 minutes, and incubated at 37° C., 5% CO2 for 4 hours. The supernatant was discarded after centrifugation at 150 g for 10 minutes. 120 μl 40 mM HCl-2-propanol was added and shaken for 3 minutes. An ELISA reader was used to obtain OD570 nm of each well referenced at 630 nm.
The NK cell activity index of each mouse was obtained by first deriving the average OD of the three parallel wells of each combination, then applying this average OD to the following formula: NK cell activity index=[1−(average OD of spleen and target cell well−average OD of spleen cell only well)÷(average OD of target cell only well)]×100% 5. The Effect of Peptides on the Survival of DBA/2 Mice with Transplanted L1210 Leukemia

[1] = system: ascitic fluid type liver cancer H22; test: Survival of mice with transplanted ascitic fluid type liver cancer H22; details: for Survival days: saline 26.2 ± 6.8
Method: (§1) Intraperitoneal injection, once per day. […] Treatment of all groups with testing substance lasted for 30 days or until the animal died unless otherwise specified.
Stock H22 cells were incubated in DMEM/F12 medium supplemented with 10% fetal bovine serum, 37° C./5% CO2 for 72 hrs, then washed 3-4 times with Hank's solution at room temperature. Adjust cell concentration to 1-2×10^9 per litre with Hank's solution. 0.2 ml of the cell suspension was implanted to the abdominal cavity of several BALB/c mice for 6-8 days. The mice were killed by cervical vertebra dislocation. Ascitic fluid of the mice was collected aseptically and the cell concentration adjusted to 1×10^6 per ml with Hank's solution. 0.2 ml of the cell suspension was implanted into the abdominal cavity of healthy mice to generate the H22 carrying mouse model for ascitic fluid type liver cancer. Administration of test substance started as described in section Method 1. Survival data of the mice was recorded. If the animal survived longer than the experiment, the survival days was recorded as the duration of the experiment. Mean survival day was obtained by the Kaplan-meier method in the Survival option of the SPSS software. The survival index was calculated according to the following formula: Survival index=(mean survival days in treatment group−mean survival days of control group)÷mean survival days of control group×100% 4. The Effect of Peptides on the Cellular Immunity of BALB/c Mice with Transplanted Ascitic Fluid Type Liver Cancer H22 4.1 Preparation of Spleen Cell Suspension^[1,4]

mononuclear phagocyte = test: Phagocytotic function of mononuclear phagocyte in mice with transplanted S180 sarcoma; details: saline 5.38 ± 0.85
Method: as §1
(§2) Stock S180 sarcoma cells were incubated in DMEM/F12 medium supplemented with 10% fetal bovine serum, 37° C., 5% CO2 for 72 hrs, then washed 3-4 times with Hank's solution at room temperature. Adjust the cell concentration to 1-2×10^9 per litre with Hank's solution. […] The mice were killed by cervical vertebra dislocation. Vigorously growing and non-disrupted tumor masses were harvested and washed clean with sterile saline. The tissue was dispersed in saline to a homogenous cell suspension, in a ratio of 1 g tissue to 4 ml saline. The sarcoma bearing mice model was prepared with an injection of 0.2 ml cell suspension through the armpit. Administration of test substance treatment started as described in section Method 1.
2.1 The effect of peptides on the phagocytotic function of mononuclear phagocyte in mice with S180 sarcoma was analysed by injecting mice from the tail vein with 0.1 ml/10 g body weight of Indian ink (1:5 dilution with normal saline) on the second day after the last test substance administration. At one minute and five minutes after the injection, 20 μl blood was obtained from the eye canthus with heparinised tubing. The blood was mixed with 2 ml 0.1% w/v Na2CO3 and then OD680 nm obtained. The outline clear index K was calculated by the following formula: K=(lgA1−lgA2)÷(t2−t1)
After the phagocytosis index study, the mice were killed by cervical vertebra dislocation. The liver, spleen, and cancer tissue were dissected, blotted dry, and weighed. The phagocytosis index a was calculated as below: α=(^3√{square root over ( )}K)×(W÷WLS)

S180 sarcoma = test: Growth of transplanted S180 sarcoma; details: for Tumor weight: saline 1.29 ± 0.50
Method: as §1, §2
2.2 The Tumor Growth Inhibition Index was Calculated According to the Following Formula: Tumor growth inhibition index=(mean tumor weight of control group−mean tumor weight of treatment group)÷mean tumor weight of control group 3.

[2] = dose 50 μg/kg i.p. once per day
[3] = dose 0.5 μg/kg i.p. once per day
[4] = dose 500 μg/kg i.p. once per day
[5] = controls: IL-2, IFN-γ 3 × 10^5 IU/kg, cyclophosphamide 20 mg/kg

With FNFVPP [CMS003] the “NK activity index (%)” value (NK cell; dose 500 μg/kg) was 37.9 ± 14.5*^^$ %.

KAVGHLDDLPGAL [CMS008] was tested, and the “Survival index (%)” value ([1]; dose 5 μg/kg i.p. once per day) was 67.8% and the Survival days ([1]; dose 5 μg/kg i.p. once per day) was 50.7 ± 20.9*^& days.

PTTKTYFPHF [CMS001] was tested, and the Phagocytosis index (mononuclear phagocyte; dose 5 μg/kg i.p. once per day) was 6.67 ± 0.43*^ and the Phagocytosis index (mononuclear phagocyte; [2]) was 6.24 ± 0.33*^.

“Phe Gln Gln Gln (FQQQ; printed: Phe Gln Gln Gln) [CMS032]” was tested, and the “Survival index (%)” value [1, 3] was 63.3%, the Survival days [1, 3] was 42.8 ± 12.2*^^&$ days and the “NK activity index (%)” value (NK cell; dose 5 μg/kg) was 52.6 ± 12.5*^^$& %. For the same molecule, the “NK activity index (%)” value (NK cell; dose 50 μg/kg) was 41.0 ± 18.7*^^$& %.

In the case of “Phe Val Asn Asp (FVND; listed as Sus scrofa) [CMS035]”, the “Tumor inhibition index (%)” value (S180 sarcoma; dose 5 μg/kg i.p. once per day) is reported as 44.6% and the “Tumor weight” value (S180 sarcoma; dose 5 μg/kg i.p. once per day) is reported as 0.71 ± 0.37 g.

“Pro Gln Asn Phe (PQNF; printed: Pro Gln Asn Phe) [CMS034]” was tested, and the Phagocytosis index (mononuclear phagocyte; [3]) was 6.35 ± 1.02, the Phagocytosis index (mononuclear phagocyte; dose 5 μg/kg i.p. once per day) was 6.20 ± 0.44*^ and the “Tumor inhibition index (%)” value (S180 sarcoma; [3]) was 35.9%. The “Tumor weight” value (S180 sarcoma; [3]) was 0.83 ± 0.48 g and the “NK activity index (%)” value (NK cell; dose 50 μg/kg) was 57.3 ± 17.9*^^$& %.

With RVAPQQHPTL [CMS011] the “Survival index (%)” value ([1]; dose 5 μg/kg i.p. once per day) was 60.2% and the Survival days ([1]; dose 5 μg/kg i.p. once per day) was 36.4 ± 22.2*^& days.

In the case of “Tyr Ser Leu (YSL; listed as Sus scrofa) [CMS024]”, the “postmortem examination of the mice surviving longer than 90 days” value ([1]; 0.5 μg/kg/day) is reported as “did not show sign of tumor establishment”, the “mice that could survive longer than 90 days” value ([1]; 0.5 μg/kg/day, n=6, two months after the experiment ended) is reported as “more than 30%” and the “Survival index (%)” value [1, 3] is reported as 76.9%. The Survival days [1, 3] was 46.4 ± 14.8*^^&$ days, the “Survival index (%)” value ([1]; dose 5 μg/kg i.p. once per day) was 54.8% and the Survival days ([1]; dose 5 μg/kg i.p. once per day) was 40.6 ± 14.6*^&$ days. For the same molecule, the “Survival index (%)” value [1, 2] was 38.4%, the Survival days [1, 2] was 36.3 ± 12.7*^&$ days and the “NK activity index (%)” value (NK cell; dose 0.5 μg/kg) was 39.3 ± 18.7*^$ %. The “NK activity index (%)” value (NK cell; dose 5 μg/kg) was 34.9 ± 12.1*^^$ % and the “NK activity index (%)” value (NK cell; dose 50 μg/kg) was 43.6 ± 13.9*^^$& %.

With VAPEEHPTLLTEAPLNPK [CMS010] the “Tumor inhibition index (%)” value (S180 sarcoma; [4]) was 48.4% and the “Tumor weight” value (S180 sarcoma; [4]) was 0.67 ± 0.35 g.

B1: IFN-γ: recombinant mouse IFN-γ (rmIFN-γ), Beijing Biotech Inc.; positive control (protein, UniProt P01580 23-155, looked up)
Interferon gamma: HGTVIESLESLNNYFNSSGIDVEEKSLFLDIWRNWQKDGDMKILQSQIISFYLRLFEVLKDNQAISNNISVIESHLITTFFSNSKAKKDAFMSIAKFEVNNPQVQRQAFNELIRVVHQLLPESSLRKRKRSRC
In the case of B1, the Phagocytosis index (mononuclear phagocyte; [5]) is reported as 5.45 ± 0.71, the “Tumor inhibition index (%)” value (S180 sarcoma; [5]) is reported as 25.3% and the “Tumor weight” value (S180 sarcoma; [5]) is reported as 0.96 ± 0.45 g. The “Survival index (%)” value ([1]; control rmIFN-γ 3 × 10^5 IU/kg) was 6.1%, the Survival days ([1]; controls: rhIL-2, rmIFN-γ 3 × 10^5 IU/kg, cyclophosphamide 20 mg/kg) was 27.8 ± 7.5 days and the “NK activity index (%)” value (NK cell; [5]) was 20.9 ± 3.3%.
